# Results reported in PubChem BioAssay AID1918931 (Molecular Pharmacology Branch, DTP, NCI, 2023).
# “And” between values parts separate entries of the source, which are not always exact repeats. Equal values may be shown once.
# Test system: 138582-337-R-J1-PDC complex spheroid viability
# Assay: Anticancer human tumor 138582-337-R-J1-PDC patient-derived Merkel cell tumor cell line growth inhibition
# Conditions: for viability, T/C: stronger effect = lower value
# From the text: Multicellular complex tumor spheroid response to LSD1 Inhibitor Iadademstat in combination with a variety of drugs and investigational agents in selected tumor cell lines
# The current study was undertaken to assess response to LSD1 inhibitors in combination with standard-of-care drugs and investigational agents in solid tumor complex spheroid models as well as in the K-562 leukemia. Complex spheroids include a stromal component modeled by human endothelial cells (HUVEC) and fibroblasts modeled by human mesenchymal stem cells (MSCs). The concentration ranges selected for each drug and investigational agent were based upon clinically achievable concentrations if the clinical Cmax of the agent was known.
# Compounds. The drugs and investigational agents used in this study are listed on Table 1. All of the agents used, including staurosporine (NSC755774) and gemcitabine (NSC613327), were obtained from the Developmental Therapeutics Program, NCI. FDA-approved anticancer drugs are available from the NCI at http://dtp.nci.nih.gov/branches/dscb/oncology_drugset_explanation.html. Drugs and investigational agents were >95% pure by proton nuclear magnetic resonance (NMR) and liquid chromatography/mass spectrometry (LC/MS). Stock solutions were prepared at 400x in DMSO, stored at -70 degrees C, and diluted in fresh medium prior to their use. The final concentration of DMSO in cell culture wells never exceeded 0.25% (v/v). The FDA-approved anticancer drug set is available from the Developmental Therapeutics Program at https://dtp.cancer.gov/organization/dscb/obtaining/available_plates.htm. All drugs and investigational agents were tested over a range starting from a high concentration at or near the clinical Cmax and decreasing in half-log increments. If the clinical Cmax for an agent had not been determined, the highest concentration tested was 10 microM.
# Cell Lines. The patient-derived cancer cell (PDC) lines: 292921-168-R-J2-PDC, K24384-001-R-PDC, and 521955-158-R2-J5-PDC pancreatic carcinomas, 556581-035-R-J1 ovarian carcinoma, 324938-238-R-J1-PDC, 855422-203-R-J1-PDC and 883617-216-R-J1-PDC urothelial bladder carcinomas, 743489-274-T-PDC renal cell carcinoma, 138582-R-J1 Merkel cell tumor, K60290-347-R-J1 and K57222-313-R-J1-PDC glioblastomas, 653999-131-R-J2-PDC, LG0703-F948-PDC, and 349418-098-R-PDC non-small cell lung carcinomas, 885512-296-R-J2-PDC, 171881-019-R-J1-PDC breast carcinomas and 186277-243-T-J2-PDC and 233499-124-R-J2-PDC colon carcinomas were obtained from the NCI Patient-Derived Models Repository (PDMR, https://pdmr.cancer.gov). The established cell lines NCI/ADR-RES (RRID:CVCL_14520 and OVCAR-5 (RRID:CVCL_1628) ovarian carcinomas, 786-O (RRID:CVCL_1051) and A498 (RRID:CVCL_A498) renal cell carcinoma, NCI-H211 (ATCC, cat. CRL-5824; RRID:CVCL_1529), NCI-H196 (ATCC, cat. CRL-5823, RRID:CVCL_1509), SW 1271 (ATCC, cat. CRL-2177, RRID:CVCL_1716) and NCI-H1876 (ATCC, cat. CRL-5902, RRID:CVCL_1503) small cell lung carcinomas, MDA-MB-231 (RRID:CVCL_0062) and MDA-MB-468 (RRID:CVCL_0419)breast carcinomas (10-12). Pooled donor human umbilical vein endothelial cells (HUVEC, Lonza, cat. CC-2519) and human mesenchymal stem cells (hMSC, Lonza, cat. PT-2501) were purchased from Lonza (Walkersville, MD).
# Cell Culture. All cells were maintained in an incubator at 37 degrees C and 5% CO2 with 95% humidity. The PDC lines were cultured according to standard operating procedures established by the NCI PDMR (https://pdmr.cancer.gov). Briefly all PDCs were thawed and cultured in Matrigel-coated flasks prepared with a working solution of 1X Ham's F-12 nutrient mix, without supplementation (Invitrogen, Waltham, MA, cat. 11765054), 100 U/mL penicillin-streptomycin (Invitrogen, cat. 15140122), and 2.5% Matrigel (Corning Inc., Corning, NY, cat. 354248) for the first three passages. […]
# [1] = curve of first compound, second compound 0.1 µM
# [2] = curve of first compound, second compound 0.316 µM
# [3] = curve of first compound, second compound 1 µM
# [4] = curve of first compound, second compound 3.16 µM
# [5] = curve of first compound, second compound 10 µM
# [6] = second compound 0.1 µM, first compound 0.00949 µM
# [7] = second compound 0.1 µM, first compound 0.03 µM
# [8] = second compound 0.1 µM, first compound 0.0949 µM
# [9] = second compound 0.1 µM, first compound 0.3 µM
# [10] = second compound 0.1 µM, first compound 0.949 µM
# [11] = second compound 0.1 µM, first compound 3 µM
# [12] = second compound 0.316 µM, first compound 0.00949 µM
# [13] = second compound 0.316 µM, first compound 0.03 µM
# [14] = second compound 0.316 µM, first compound 0.0949 µM
# [15] = second compound 0.316 µM, first compound 0.3 µM
# [16] = second compound 0.316 µM, first compound 0.949 µM
# [17] = second compound 0.316 µM, first compound 3 µM
# [18] = second compound 1 µM, first compound 0.00949 µM
# [19] = second compound 1 µM, first compound 0.03 µM
# [20] = second compound 1 µM, first compound 0.0949 µM
# [21] = second compound 1 µM, first compound 0.3 µM
# [22] = second compound 1 µM, first compound 0.949 µM
# [23] = second compound 1 µM, first compound 3 µM
# [24] = second compound 3.16 µM, first compound 0.00949 µM
# [25] = second compound 3.16 µM, first compound 0.03 µM
# [26] = second compound 3.16 µM, first compound 0.0949 µM
# [27] = second compound 3.16 µM, first compound 0.3 µM
# [28] = second compound 3.16 µM, first compound 0.949 µM
# [29] = second compound 3.16 µM, first compound 3 µM
# [30] = second compound 10 µM, first compound 0.00949 µM
# [31] = second compound 10 µM, first compound 0.03 µM
# [32] = second compound 10 µM, first compound 0.0949 µM
# [33] = second compound 10 µM, first compound 0.3 µM
# [34] = second compound 10 µM, first compound 0.949 µM
# [35] = second compound 10 µM, first compound 3 µM
# 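Further: spheroids exposed to agents for 7 days.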
# 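Wherever viability, T/C is given: 100% = DMSO vehicle control viability.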
compound,measurement,setting,value
Nc1ccccc1NC(=O)c1ccc(CNC(=O)OCc2cccnc2)cc1 + NC1CCC(NC2CC2c2ccccc2)CC1,IC50,[1],1.1 µM
same,IC50,[2],1.1 µM
same,IC50,[3],1.02 µM
same,IC50,[4],1.01 µM
same,IC50,[5],0.138 µM
same,"viability, T/C",[6],103%
same,"viability, T/C",[7],81.7%
same,"viability, T/C",[8],83.9%
same,"viability, T/C",[9],101%
same,"viability, T/C",[10],57.1%
same,"viability, T/C",[11],1.81%
same,"viability, T/C",[12],88.8%
same,"viability, T/C",[13],76.8%
same,"viability, T/C",[14],79.5%
same,"viability, T/C",[15],86.1%
same,"viability, T/C",[16],57%
same,"viability, T/C",[17],1.94%
same,"viability, T/C",[18],96.1%
same,"viability, T/C",[19],80.2%
same,"viability, T/C",[20],77.3%
same,"viability, T/C",[21],92.5%
same,"viability, T/C",[22],53.5%
same,"viability, T/C",[23],0.81%
same,"viability, T/C",[24],90.5%
same,"viability, T/C",[25],82.3%
same,"viability, T/C",[26],74.5%
same,"viability, T/C",[27],76.4%
same,"viability, T/C",[28],53.5%
same,"viability, T/C",[29],0.82%
same,"viability, T/C",[30],74.2%
same,"viability, T/C",[31],57.8%
same,"viability, T/C",[32],62.2%
same,"viability, T/C",[33],35.4%
same,"viability, T/C",[34],17.7%
same,"viability, T/C",[35],0.52%
NS(=O)(=O)OCC1CC(n2ccc3c(NC4CCc5ccccc54)ncnc32)CC1O (stereo not drawn) + NC1CC1c1ccc(-c2cccc(O)c2)cc1,IC50,[1],0.0789 µM
same,IC50,[2],0.0737 µM
same,IC50,[3],0.0726 µM
same,IC50,[4],0.1 µM
same,IC50,[5],0.141 µM
same,"viability, T/C",[6],83.6%
same,"viability, T/C",[7],63.1%
same,"viability, T/C",[8],48.4%
same,"viability, T/C",[9],34.3%
same,"viability, T/C",[10],15.5%
same,"viability, T/C",[11],15%
same,"viability, T/C",[12],72.6%
same,"viability, T/C",[13],59%
same,"viability, T/C",[14],48.4%
same,"viability, T/C",[15],34.3%
same,"viability, T/C",[16],24.2%
same,"viability, T/C",[17],15.6%
same,"viability, T/C",[18],82.2%
same,"viability, T/C",[19],56.3%
same,"viability, T/C",[20],50.3%
same,"viability, T/C",[21],35.8%
same,"viability, T/C",[22],15.6%
same,"viability, T/C",[23],14.6%
same,"viability, T/C",[24],86.2%
same,"viability, T/C",[25],63.7%
same,"viability, T/C",[26],51.7%
same,"viability, T/C",[27],40.7%
same,"viability, T/C",[28],17.4%
same,"viability, T/C",[29],14%
same,"viability, T/C",[30],103%
same,"viability, T/C",[31],68.1%
same,"viability, T/C",[32],65.6%
same,"viability, T/C",[33],37.1%
same,"viability, T/C",[34],20.4%
same,"viability, T/C",[35],16.1%
CC(C)CC(NC(=O)C(Cc1ccccc1)NC(=O)c1cnccn1)B(O)O (stereo not drawn),"viability, T/C",compound 0.000316 µM,116% and 74.5%
same,"viability, T/C",compound 0.00316 µM,0.75% and 0.32%
same,"viability, T/C",compound 0.01 µM,0.21% and 0.23%
same,"viability, T/C",compound 0.0316 µM,0.25% and 0.21%
same,"viability, T/C",compound 0.1 µM,0.37% and 0.28%
same,IC50,curve of compound,0.000922 µM and 0.000463 µM
CC1(C)CCC(CN2CCN(c3ccc(C(=O)NS(=O)(=O)c4ccc(NCC5CCOCC5)c([N+](=O)[O-])c4)c(Oc4cnc5[nH]ccc5c4)c3)CC2)=C(c2ccc(Cl)cc2)C1 + NC1CC1c1ccc(-c2cccc(O)c2)cc1,IC50,[1],3.98 µM
same,IC50,[2],3.76 µM
same,IC50,[3],4.03 µM
same,IC50,[4],3.27 µM
same,IC50,[5],3.55 µM
same,"viability, T/C","second compound 0.1 µM, first compound 0.0316 µM",63.8%
same,"viability, T/C","second compound 0.1 µM, first compound 0.1 µM",55.9%
same,"viability, T/C","second compound 0.1 µM, first compound 0.316 µM",56.7%
same,"viability, T/C","second compound 0.1 µM, first compound 1 µM",66.3%
same,"viability, T/C","second compound 0.1 µM, first compound 3.16 µM",66.6%
same,"viability, T/C","second compound 0.1 µM, first compound 10 µM",2.31%
same,"viability, T/C","second compound 0.316 µM, first compound 0.0316 µM",70.8%
same,"viability, T/C","second compound 0.316 µM, first compound 0.1 µM",63%
same,"viability, T/C","second compound 0.316 µM, first compound 0.316 µM",59.4%
same,"viability, T/C","second compound 0.316 µM, first compound 1 µM",67.9%
same,"viability, T/C","second compound 0.316 µM, first compound 3.16 µM",58.1%
same,"viability, T/C","second compound 0.316 µM, first compound 10 µM",2.2%
same,"viability, T/C","second compound 1 µM, first compound 0.0316 µM",69.7%
same,"viability, T/C","second compound 1 µM, first compound 0.1 µM",64.2%
same,"viability, T/C","second compound 1 µM, first compound 0.316 µM",78%
same,"viability, T/C","second compound 1 µM, first compound 1 µM",64%
same,"viability, T/C","second compound 1 µM, first compound 3.16 µM",63.5%
same,"viability, T/C","second compound 1 µM, first compound 10 µM",1.33%
same,"viability, T/C","second compound 3.16 µM, first compound 0.0316 µM",62.9%
same,"viability, T/C","second compound 3.16 µM, first compound 0.1 µM",68.5%
same,"viability, T/C","second compound 3.16 µM, first compound 0.316 µM",57.9%
same,"viability, T/C","second compound 3.16 µM, first compound 1 µM",65.3%
same,"viability, T/C","second compound 3.16 µM, first compound 3.16 µM",51.6%
same,"viability, T/C","second compound 3.16 µM, first compound 10 µM",2.03%
same,"viability, T/C","second compound 10 µM, first compound 0.0316 µM",62.3%
same,"viability, T/C","second compound 10 µM, first compound 0.1 µM",69.8%
same,"viability, T/C","second compound 10 µM, first compound 0.316 µM",72.9%
same,"viability, T/C","second compound 10 µM, first compound 1 µM",70.4%
same,"viability, T/C","second compound 10 µM, first compound 3.16 µM",55.6%
same,"viability, T/C","second compound 10 µM, first compound 10 µM",1.17%
NC1CC1c1ccc(-c2cccc(O)c2)cc1 (stereo not drawn),"viability, T/C",compound 0.1 µM,75.3%
same,IC50,"compound alone, run of 02/01/2022",> 10 µM
